Results reported in patent US10172911B2, “Methods of modulating erythropoiesis with arginine vasopressin receptor 1B molecules” (The United States of America, as represented by the …, priority 2013, dated 2019).

How the values were obtained:
Wnt pathway = assay: Q-PCR and microarray of Wnt pathway genes in AVP-stimulated CD34+ cells; type: cell-based, human
Excerpt: FIGS. 3A-3D show studies of signaling pathways. FIG. 3A provides results from CFU assays showing E-CFU and GM-CFU numbers/1000 plated cells. […] Error bars represent means±SD * p<0.05, ** p<0.01, unpaired t-test. […] The cells were then fixed with 4% paraformaldehyde and washed before immunostaining. Following permeabilization with Triton-X 100 a primary antibody to β-catenin was applied followed by a fluorescent secondary antibody. The β-catenin translocated to the nucleus at the 10^−10 AVP concentration confirming the activation of the Wnt pathway. Scale: 10 μm. […] Using Q-PCR to detect changes in genes that reflect Wnt pathway activation, increases in CCND1, MYC and LEF1 in response to AVP stimulation were observed.
The resultant cDNA was amplified with QuantiTect SYBR Green RT-PCR kit (Qiagen) or with SYBR Green Supermix (Bio-Rad, Hercules, Calif.). For qPCR, cDNA (2 μls of cDNA for AVP expression and […] for OXT or beta-actin expression) was amplified with QuantiTect SYBR Green RT-PCR kit and the expression data were normalized to human beta-actin expression.

BM erythroid cells = assay: Bone marrow erythroid populations after injection of AVP, AVPR1B agonist or EPO (flow cytometry, EdU); type: in vivo, mouse
Procedure: In vivo AVP-treated/hemorrhaged/control mice were IP injected with 10 μM/1000 g BW 5-ethynyl-2′-deoxyuridine (EdU: Life Technologies) for 2 hours. Single cell suspensions from the tibial and femoral bone marrows of mice (n=5 in each group) were prepared. After lysing the cells with ACK buffer, cells of the erythroid lineage were labeled with antibodies against TER-119 (BD Pharmingen) and CD71 (BD Pharmingen) or CD44 (BD Pharmingen) conjugated with FITC or PE fluorophores. After washing with FACS buffer, cells were fixed/permeabilized according to the manufacturer's recommendation (Life Technologies). Incorporated EdU molecules were visualized by a click reaction with Alexa Fluor 647-conjugated picolyl-azide and cell nuclei were stained with DAPI. Cell cycle characteristics of erythroid cells were detected with a Beckman-Coulter MoFlo Astrios flow cytometer.
For lineage negative, Sca-1 positive and c-kit positive (LSK) cell sorting, rat anti-mouse lineage antibodies (anti CD4, CD8, B220, Ter119, Gr-1, CD11b) were added to bone marrow cell suspension after ACK lysis and cells were depleted using anti-rat magnetic beads (Biomag anti rat IgG, Qiagen). Lineage negative cells were stained with c-kit PE/Cy5 and Sca-1-FITC antibodies and the double positive population was further enriched with anti-PE and anti-FITC magnetic beads (Miltenyi). LSK cells were sorted on a DAKO Cytomation MoFlo cell sorter. For LSK subpopulation sorting lineage depleted cells were stained for c-kit, Sca-1, CD48, CD150 and CD34 and 4 LSK subpopulations were sorted using the gating strategy described by Wilson et al. (34). Sorted cells from HSC (LSK, CD34^−, CD48^−, CD150^+), MPP1 (LSK, CD34^+, CD48^−, CD150^+), MPP2 (LSK, CD34^+, CD48^+, CD150^+) and MPP3/4 (LSK, CD34^+, CD48^+, CD150^−) subpopulations were plated in 1×PBS onto coated glass slides fixed with 2% PFA and immunostained for AVPR1B. Erythropoietic progenitors were sorted based on CD71 and Ter119 markers. All cells were sorted using a MoFlo Astrios cell sorter (Beckman Coulter). Competitive Repopulation Assay
The inventors determined that AVP induced a fast hematocrit response in severe anemia that is independent of EPO. AVP receptors in the HSPCs was confirmed and they next decided to examine how AVP affects the erythroid lineage cells (developmental stages) in the BM. […] In cell populations sorted as above, the presence of AVPR1B and EPO receptor (EPOR) mRNA using QPCR was also determined. […] AVPR2 mRNA was detected in all populations, whereas AVPR1A mRNA was barely detectable.

[1] = AVP stimulated CD34+ cells vs control cells

NC(=O)CC[C@@H]1NC(=O)[C@H](Cc2ccccc2)NC(=O)[C@H](Cc2ccc(O)cc2)NC(=O)[C@@H](N)CSSC[C@@H](C(=O)N2CCC[C@H]2C(=O)N[C@@H](CCCN=C(N)N)C(=O)NCC(N)=O)NC(=O)[C@H](CC(N)=O)NC1=O [AVP, [Arg8]-Vasopressin]
LEF1 RNA (Wnt pathway; [1]): an increase (statistically not significant) | MYC RNA (Wnt pathway; [1]): significantly more | cyclin D1 (CCND1) RNA (Wnt pathway; [1]): significantly more | difference in Wnt pathway genes (CDON, DKK1, DPP10, FZD7 up; CDKN2A, FST, KLF5 down) (Wnt pathway; single microarray study): over two-fold difference | BM erythroid progenitors (Ter-119, CD 71 gated area) (BM erythroid cells; 16 hours after injection): clear increase in progenitors | apoptosis in the late progenitor populations (BM erythroid cells; EdU, Annexin V and DAPI): significant decrease in apoptosis | effect on more matured erythroid populations (BM erythroid cells; after hemorrhage, AVP vs EPO): much more robust effect than EPO | numbers of more mature erythroid cells (polychromatic and orthochromatic erythroblasts/reticulocytes) (BM erythroid cells; bone marrow, flow cytometry): significantly increased
